# Reference: US20080113924A1, “Neuramindase Inhibitor” (priority 2004, published 2008)
# Target: T1, Neuraminidase (Derived from Vibrio cholerae) (Vibrio cholerae serotype O1, UniProt P0C6E9)
# T1 construct: host or cells: Vibrio cholerae (printed as 'Vibro-Choralie')
# Assay: Inhibition activity against neuraminidase (pre-incubation, p-nitrophenyl-α-N-acetyl neuraminic acid hydrolysis, absorbance 405 nm)
# Format: biochemical
# Details: irreversible inhibitor; pre-incubation 0, 10 or 30 min with 0-0.5 mM, pH 5.0; calculated from inhibition curve (FIG. 3); read-out: inhibition constant (Ki)
# Experimental: Neuraminidase (50 μg) produced by Vibro-Choralie was pre-incubated in 50 mM phosphoric acid-tartaric acid buffer (pH 5.0, 10 μ1) together with the compound 6 (0, 0.05, 0.1, 0.2, and 0.5 mM), after 0, 10 or 30 minutes, 2 μl of the reaction solution was fractionated, respectively. The fractionated and pre-incubated solution was immediately incubated for 5 minutes in 50 mM phosphoric acid-tartaric acid buffer (pH 5.0, 50 μl) using 5 mM p-nitrophenyl-α-N-acetyl neuraminic acid. Then, glycine buffer (pH 11.0, […]) was added to each fractionated solution to stop the reaction. The amount of p-nitrophenol produced by hydrolysis reaction of neuraminidase was calculated by absorbance determination at 405 nm.
# T1 sequence (P0C6E9 25-781): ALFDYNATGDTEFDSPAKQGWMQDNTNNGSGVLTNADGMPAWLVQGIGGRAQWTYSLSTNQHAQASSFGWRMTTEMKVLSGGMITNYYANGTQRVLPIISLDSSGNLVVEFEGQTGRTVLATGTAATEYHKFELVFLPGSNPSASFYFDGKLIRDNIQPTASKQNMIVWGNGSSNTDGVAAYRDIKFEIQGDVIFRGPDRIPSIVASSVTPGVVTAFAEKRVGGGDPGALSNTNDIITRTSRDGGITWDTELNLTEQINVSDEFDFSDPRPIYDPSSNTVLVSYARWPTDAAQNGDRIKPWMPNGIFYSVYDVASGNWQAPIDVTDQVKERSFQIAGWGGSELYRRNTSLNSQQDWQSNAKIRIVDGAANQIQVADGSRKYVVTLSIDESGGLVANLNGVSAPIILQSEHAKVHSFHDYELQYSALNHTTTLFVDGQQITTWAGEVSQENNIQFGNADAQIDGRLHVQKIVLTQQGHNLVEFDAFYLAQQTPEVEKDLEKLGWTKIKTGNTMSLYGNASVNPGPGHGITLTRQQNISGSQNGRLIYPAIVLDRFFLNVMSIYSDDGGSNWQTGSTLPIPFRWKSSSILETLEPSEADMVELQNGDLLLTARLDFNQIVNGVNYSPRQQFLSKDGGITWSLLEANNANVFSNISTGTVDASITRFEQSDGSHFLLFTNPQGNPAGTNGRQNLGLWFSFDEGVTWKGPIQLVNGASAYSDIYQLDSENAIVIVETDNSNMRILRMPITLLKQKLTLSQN
smiles,measurement,value
CC(=O)NC1C(O)CC(Oc2ccc(NS(=O)(=O)c3cccc4c(N(C)C)cccc34)cc2C(F)F)(C(=O)O)OC1C(O)C(O)CO (stereo not shown) [compound 6],Ki,1.9 mM
